Laboratory results from article PMC11577759, “The structure of lipopeptides impacts their antiviral activity and mode of action against SARS-CoV-2 in vitro” (Applied and Environmental Microbiology, 2024).
In brackets after ≈: the same amount, converted by molar mass. Where two headings read alike, the source gives them in different places. Positions of bridges follow the written chain, without caps; N, C: chain ends. Non-standard residues stand in square brackets, D forms with d. Residues, ends and D or L forms follow the SMILES beside them. *: point of attachment. d(aThr) = C[C@@H](O)[C@@H](N)C(=O)O; X2 = CCCCCCCCCCCC(O)CC(=O)*

What was measured:
Vero E6 cells = experiment: Cytotoxicity, CyQUANT XTT cell viability assay; type: cell-based, Chlorocebus sp.; conditions: for IC50 (half maximal inhibitory concentration, cytotoxicity): Vero E6 cells, 72 h, XTT, mean (standard deviation), fengycin and caspofungin determined at higher concentrations in a subsequent experiment
Protocol: (§1) Chlorocebus sp. kidney epithelial cells (Vero E6; ATCC VERO C1008) were cultured in Dulbecco’s Modified Eagle medium (DMEM) High Glucose w/ Stable Glutamine w/ Sodium Pyruvate (VWR, USA) supplemented with 2% (vol/vol) of decomplemented fetal bovine serum (FBS, Biowest, France) and 1% (vol/vol) Penicillin-Streptomycin (VWR, USA). The cells were grown at 37°C in a humidified 5% CO2 atmosphere. Cells were routinely passaged when they reached 100% confluence and were passaged until passage 15.
(§2) The cytotoxic activity of the lipopeptides was assessed using a CyQUANT XTT Cell Viability Assay (Thermo Fisher Scientific) according to the manufacturer’s instructions. […] The cells were then incubated for 72 h at 37°C. The kit was then used following the manufacturer’s instructions, and the plates were read at 450 nm and 660 nm using a Multiskan GO Microplate Spectrophotometer (Thermo Fisher Scientific). The percentage of viable cells was calculated as (AT450 − AT660 − AB450) / (AC450 − AC660) × 100%, where AT450, AT660, AB450, AC450, and AC660 represent the absorbance of the tested well at 450 nm, of the tested well at 660 nm, of the blank (only medium) at 450 nm, of the control cells at 450 nm, and of the control cells at 660 nm, respectively. One hundred percent viability corresponds to the viability of uninfected cells. DMSO concentrations ranging from 0.5% (vol/vol) to 0.001% (vol/vol) were used as a negative control for the assay. Every sample was tested in triplicate.

SARS-CoV-2 = experiment: Replication / antiviral assay, viral RNA in supernatant by RT-qPCR; type: cell-based; conditions: for EC50 (half maximal effective concentration) / EC50: mean (standard deviation); for EC50: read-out: EC50 (half maximal effective concentration)
[1] = Cytotoxicity, CyQUANT XTT cell viability assay; type: cell-based, Chlorocebus sp.; conditions: Chlorocebus sp. (African green monkey), Vero E6 cells (kidney epithelial cells); Vero E6 cells, 72 h, XTT; mean (standard deviation); fengycin and caspofungin determined at higher concentrations in a subsequent experiment; read-out: IC50 (half maximal inhibitory concentration, cytotoxicity)
Protocol: as §1, §2

Vero cells = tested on: Vero cells; set-up: method as in earlier work; conditions: ref 38 (Shekunov et al.); cited from earlier work
[2] = 100 µg/mL, 72 h pi, compared to untreated infected cells
[3] = SARS-CoV-2 MOI 0.01, Vero E6, viral RNA at 72 h pi by RT-qPCR

| Compound | IC50 (half maximal inhibitory concentration, cytotoxicity) (Vero E6 cells) | Maximal RNA reduction at 100 µg/mL (SARS-CoV-2; [2]) | EC50 (half maximal effective concentration) (SARS-CoV-2; [3]) | IC50 at 72 h [1] | also measured |
| --- | --- | --- | --- | --- | --- |
| Lichenysin | 28.1 (1.4) µg/mL | 6.3-log | 25.9 (3.2) µg/mL |  | Maximal RNA reduction at 100 µg/mL (SARS-CoV-2; 100 µg/mL, 72 h pi, compared to untreated infected cells, listed as lichenysin): 6.3 log |
| CCC(=O)CCCCC[C@@H]1NC(=O)[C@H]2CCCCN2C(=O)[C@H]([C@@H](C)CC)NC(=O)[C@H](Cc2cn(OC)c3ccccc23)NC1=O [Apicidin] |  | 3.7-log |  | 0.7 µg/mL (≈ 1.12 µM) | EC50 (SARS-CoV-2; Severe acute respiratory syndrome coronavirus 2, Vero C1008, SARS-CoV-2 MOI 0.01, Vero E6, viral RNA at 72 h pi by RT-qPCR): 25.2 µg/mL (≈ 40.4 µM) |
| CCCCCCCCCC(=O)N[C@@H](Cc1c[nH]c2ccccc12)C(=O)N[C@H](CC(N)=O)C(=O)N[C@@H](CC(=O)O)C(=O)N[C@@H]1C(=O)NCC(=O)N[C@@H](CCCN)C(=O)N[C@@H](CC(=O)O)C(=O)N[C@H](C)C(=O)N[C@@H](CC(=O)O)C(=O)NCC(=O)N[C@H](CO)C(=O)N[C@@H]([C@H](C)CC(=O)O)C(=O)N[C@@H](CC(=O)c2ccccc2N)C(=O)O[C@@H]1C [Daptomycin, reference compound] |  |  |  | > 100 µg/mL | Cytotoxicity (Vero E6 cells; concentrations up to 100 µg/mL, Vero E6, 72 h): did not cause any cytotoxicity; Maximal RNA reduction at 100 µg/mL (SARS-CoV-2): 0.3-log; EC50 (SARS-CoV-2; Severe acute respiratory syndrome coronavirus 2, Vero C1008, 72 h, […]): > 100 µg/mL; Maximal RNA reduction at 100 µg/mL (SARS-CoV-2; listed as daptomycin): no effect; IC50 (Vero cells): 0.7 µg/mL (≈ 0.432 µM) |
| Fusaricidin | 24.6 (1.1) µg/mL | 3.3-log | 51.2 (13.6) µg/mL |  |  |
| CCCCCCCCCCCC(O)CC(=O)N[C@@H](CC(C)C)C(=O)N[C@H](CCC(=O)O)C(=O)N[C@H]1C(=O)N[C@H](C(C)C)C(=O)N[C@@H](CC(C)C)C(=O)N[C@H](CO)C(=O)N[C@@H](CC(C)C)C(=O)N[C@@H](CC(C)C)C(=O)N[C@H](CO)C(=O)N[C@@H](C(C)C)C(=O)O[C@@H]1C (stereo partly drawn) [Orfamide B] (X2-L[dE][d(aThr)][dV]L[dS]LL[dS]V; ester 3-C) | 14.6 (0.4) µg/mL | 6.3-log | 12.8 (4.1) µg/mL |  | Maximal RNA reduction at 100 µg/mL (SARS-CoV-2; 100 µg/mL, 72 h pi, compared to untreated infected cells, listed as orfamide B): 6.3 log |
| Pumilacidin | 36.0 (3.5) µg/mL | 6.3-log | 47.8 (0.4) µg/mL |  | Maximal RNA reduction at 100 µg/mL (SARS-CoV-2; 100 µg/mL, 72 h pi, compared to untreated infected cells, listed as pumilacidin): 6.3 log |
